Data reported in US9260425B2 (Genetech, Inc., priority 2011, dated 2016).

target: Pim-1 (Homo sapiens (Human), UniProt P11309); test: Pim kinase binding activity assay (Example 901), PIM-1 enzyme, Caliper microfluidic peptide phosphorylation; assay type: biochemical; conditions: 20 pM PIM-1, 10 μM ATP, 1 μM FAM-peptide, 90 minutes at room temperature
Summary of the method: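 The readout was microfluidic mobility-shift separation of a FAM-tagged Pim-specific peptide, excited at 488 nm and read at 530 nm, with Ki calculated from percent conversion. Reactions held 20 pM PIM-1, 1 μM peptide and 10 μM ATP in pH 7.2 HEPES/MgCl2/DTT buffer, ran 90 min at room temperature and were stopped with EDTA.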

Pim-1, sequence (P11309 whole entry): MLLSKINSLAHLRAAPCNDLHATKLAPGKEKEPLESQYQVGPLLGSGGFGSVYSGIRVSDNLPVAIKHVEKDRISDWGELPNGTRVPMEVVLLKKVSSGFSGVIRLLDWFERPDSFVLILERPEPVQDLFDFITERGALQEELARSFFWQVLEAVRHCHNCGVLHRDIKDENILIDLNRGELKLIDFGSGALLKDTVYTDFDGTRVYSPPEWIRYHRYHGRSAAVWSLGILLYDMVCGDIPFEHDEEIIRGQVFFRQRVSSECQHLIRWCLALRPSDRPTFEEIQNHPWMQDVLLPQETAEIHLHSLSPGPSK

Row | SMILES | Ki
1 | O=C1CN(c2cccc(-c3n[nH]c4cnc(-c5cccnc5)cc34)n2)CCCN1 [Example 322, 4-(6-(5-(pyridin-3-yl)-1H-pyrazolo[3,4-c]pyridin-3-yl)pyridin-2-yl)-1,4-diazepan-2-one] | 0.322 nM
2 | CCn1cc(-c2cc3c(-c4nc(N5CCC[C@H](N)C5)ccc4Cl)n[nH]c3cn2)cn1 [Example 466, (S)-1-(5-chloro-6-(5-(1-ethyl-1H-pyrazol-4-yl)-1H-pyrazolo[3,4-c]pyridin-3-yl)pyridin-2-yl)piperidin-3-amine] | 0.389 nM
3 | Cn1cc(-c2n[nH]c3cnc(-c4cncc(N5CCC(N)CC5)n4)cc23)cn1 [Example 221, 1-(6-(3-(1-methyl-1H-pyrazol-4-yl)-1H-pyrazolo[3,4-c]pyridin-5-yl)pyrazin-2-yl)piperidin-4-amine] | 0.096 nM
4 | Cn1ccc(-c2n[nH]c3cnc(-c4cccnc4)cc23)n1 [Example 232, 3-(1-methyl-1H-pyrazol-3-yl)-5-(pyridin-3-yl)-1H-pyrazolo[3,4-c]pyridine] | 7.16 nM
5 | Cn1cc(-c2cc3c(-c4cccc(-c5cnn(C)c5)n4)n[nH]c3cn2)cn1 [Example 184, 5-(1-methyl-1H-pyrazol-4-yl)-3-(6-(1-methyl-1H-pyrazol-4-yl)pyridin-2-yl)-1H-pyrazolo[3,4-c]pyridine] | 0.502 nM
6 | C=Cc1ccc(-c2n[nH]c3cnc(-c4cnn(C)c4)cc23)nc1N1CCC[C@H](N)C1 [Example 412, (S)-1-(6-(5-(1-methyl-1H-pyrazol-4-yl)-1H-pyrazolo[3,4-c]pyridin-3-yl)-3-vinylpyridin-2-yl)piperidin-3-amine] | 0.036 nM
7 | NCCCCNc1cccc(-c2n[nH]c3cnc(-c4cccnc4)cc23)n1 [Example 283, N1-(6-(5-(pyridin-3-yl)-1H-pyrazolo[3,4-c]pyridin-3-yl)pyridin-2-yl)butane-1,4-diamine] | 0.257 nM
8 | CCc1ccnc(-c2n[nH]c3cnc(-c4cnn(CC)c4)cc23)c1 [Example 493, 5-(1-ethyl-1H-pyrazol-4-yl)-3-(4-ethylpyridin-2-yl)-1H-pyrazolo[3,4-c]pyridine] | 43.6 nM
9 | N[C@@H]1CCC[C@H](Nc2cccc(-c3n[nH]c4cnc(-c5cccnc5)cc34)n2)C1 [Example 239, (1S,3R)—N1-(6-(5-(pyridin-3-yl)-1H-pyrazolo[3,4-c]pyridin-3-yl)pyridin-2-yl)cyclohexane-1,3-diamine] | 0.3 nM
10 | CCn1cc(-c2cc3c(-c4cccc(N5CCN(C6COC6)CC5)n4)n[nH]c3cn2)cn1 [Example 480, 5-(1-ethyl-1H-pyrazol-4-yl)-3-(6-(4-(oxetan-3-yl)piperazin-1-yl)pyridin-2-yl)-1H-pyrazolo[3,4-c]pyridine] | 0.311 nM
11 | c1cncc(-c2cc3c(C4CCCC4)n[nH]c3cn2)c1 [Example 228, 3-cyclopentyl-5-(pyridin-3-yl)-1H-pyrazolo[3,4-c]pyridine] | 43 nM
12 | c1cc(-c2n[nH]c3cnc(-n4ccnc4)cc23)nc(N2CCCCC2)c1 [Example 363, 5-(1H-imidazol-1-yl)-3-(6-(piperidin-1-yl)pyridin-2-yl)-1H-pyrazolo[3,4-c]pyridine] | 2.41 nM
13 | O[C@@H]1CCCN(c2cccc(-c3n[nH]c4cnc(-c5cccnc5)cc34)n2)C1 [Example 271, (R)-1-(6-(5-(pyridin-3-yl)-1H-pyrazolo[3,4-c]pyridin-3-yl)pyridin-2-yl)piperidin-3-ol] | 0.073 nM
14 | Cn1cc(-c2cc3c(-c4ccnc(N5CCC[C@@H](N)C5)n4)n[nH]c3cn2)cn1 [Example 364, (R)-1-(4-(5-(1-methyl-1H-pyrazol-4-yl)-1H-pyrazolo[3,4-c]pyridin-3-yl)pyrimidin-2-yl)piperidin-3-amine] | 0.052 nM
15 | N[C@@H]1CCCN(Cc2n[nH]c3cnc(-c4cccnc4)cc23)C1 [Example 105, (R)-1-((5-(pyridin-3-yl)-1H-pyrazolo[3,4-c]pyridin-3-yl)methyl)piperidin-3-amine] | 3400 nM
16 | CCn1cc(-c2cc3c(-c4cccc(N5CCN[C@H](C)C5)n4)n[nH]c3cn2)cn1 [Example 397, (R)-5-(1-ethyl-1H-pyrazol-4-yl)-3-(6-(3-methylpiperazin-1-yl)pyridin-2-yl)-1H-pyrazolo[3,4-c]pyridine] | 0.046 nM
17 | c1cc(-c2n[nH]c3cnc(N4CCOCC4)cc23)nc(N2CCNCC2)c1 [Example 401, 4-(3-(6-(piperazin-1-yl)pyridin-2-yl)-1H-pyrazolo[3,4-c]pyridin-5-yl)morpholine] | 3.29 nM
18 | Fc1ccccc1-c1n[nH]c2cnc(-c3cnccc3O[C@H]3CCCNC3)cc12 [Example 148, (S)-3-(2-fluorophenyl)-5-(4-(piperidin-3-yloxy)pyridin-3-yl)-1H-pyrazolo[3,4-c]pyridin] | 0.342 nM
19 | NCC1CCN(c2cncc(-c3n[nH]c4cnc(-c5cccnc5)cc34)c2)CC1 [Example 165, (1-(5-(5-(pyridin-3-yl)-1H-pyrazolo[3,4-c]pyridin-3-yl)pyridin-3-yl)piperidin-4-yl)methanamine] | 0.985 nM
20 | N[C@H]1CCCN(Cc2n[nH]c3cnc(-c4cccnc4)cc23)C1 [Example 104, (S)-1-((5-(pyridin-3-yl)-1H-pyrazolo[3,4-c]pyridin-3-yl)methyl)piperidin-3-amine] | 3000 nM

Row | SMILES | Ki
21 | NC1CCN(c2cncc(-c3cc4c(-c5ccccc5F)n[nH]c4cn3)c2)CC1 [Example 157, 1-(5-(3-(2-fluorophenyl)-1H-pyrazolo[3,4-c]pyridin-5-yl)pyridin-3-yl)piperidin-4-amine] | 1.31 nM
22 | NC1CCCN(c2ccncc2-c2cc3c(-c4ccccc4F)n[nH]c3cn2)CC1 (stereo not drawn) [Example 139, 1-(3-(3-(2-fluorophenyl)-1H-pyrazolo[3,4-c]pyridin-5-yl)pyridin-4-yl)azepan-4-amine] | 255 nM
23 | CC1CN(c2cccc(-c3n[nH]c4cnc(-c5cnn(CCF)c5)cc34)n2)CCN1 (stereo not drawn) [Example 516, 5-(1-(2-fluoroethyl)-1H-pyrazol-4-yl)-3-(6-(3-methylpiperazin-1-yl)pyridin-2-yl)-1H-pyrazolo[3,4-c]pyridine] | 0.024 nM
24 | Cn1cc(-c2cc3c(-c4cccc(N5CCC(CN)CC5)n4)n[nH]c3cn2)cn1 [Example 182, (1-(6-(5-(1-methyl-1H-pyrazol-4-yl)-1H-pyrazolo[3,4-c]pyridin-3-yl)pyridin-2-yl)piperidin-4-yl)methanamine] | 0.085 nM
25 | CN1CCN(c2cc3c(-c4ccccc4)n[nH]c3cn2)CC1=O [Example 330, 1-methyl-4-(3-phenyl-1H-pyrazolo[3,4-c]pyridin-5-yl)piperazin-2-one] | 660 nM
26 | Fc1ccccc1-c1n[nH]c2cnc(-c3cnccc3OCC3CCNCC3)cc12 [Example 155, 3-(2-fluorophenyl)-5-(4-(piperidin-4-ylmethoxy)pyridin-3-yl)-1H-pyrazolo[3,4-c]pyridine] | 0.614 nM
27 | Cn1cc(-c2cc3c(-c4ccnc(N5CCC[C@H](N)C5)n4)n[nH]c3cn2)cn1 [Example 365, (S)-1-(4-(5-(1-methyl-1H-pyrazol-4-yl)-1H-pyrazolo[3,4-c]pyridin-3-yl)pyrimidin-2-yl)piperidin-3-amine] | 0.0941 nM
28 | Cc1ccc(-c2cc3c(-c4cccc(N5CCNCC5)n4)n[nH]c3cn2)cn1 [Example 367] | 0.217 nM
29 | NC1CCCN(c2cncc(-c3n[nH]c4cnc(-c5cccnc5)cc34)c2)CC1 (stereo not drawn) [Example 169, 1-(5-(5-(pyridin-3-yl)-1H-pyrazolo[3,4-c]pyridin-3-yl)pyridin-3-yl)azepan-4-amine] | 1.35 nM
30 | N[C@H]1CCCN(Cc2n[nH]c3cnc(-c4cn[nH]c4)cc23)C1 [Example 107, (S)-1-((5-(1H-pyrazol-4-yl)-1H-pyrazolo[3,4-c]pyridin-3-yl)methyl)piperidin-3-amine] | 3000 nM
31 | Cn1cc(-c2cc3c(-c4ccc(Br)c(N5CC(N6CCNC(=O)C6)C5)n4)n[nH]c3cn2)cn1 [Example 405, 4-(1-(3-bromo-6-(5-(1-methyl-1H-pyrazol-4-yl)-1H-pyrazolo[3,4-c]pyridin-3-yl)pyridin-2-yl)azetidin-3-yl)piperazin-2-one] | 0.527 nM
32 | c1cncc(-c2cc3c(-c4cccc(N5CCC(C6CCNCC6)CC5)n4)n[nH]c3cn2)c1 [Example 273, 3-(6-(4,4′-bipiperidin-1-yl)pyridin-2-yl)-5-(pyridin-3-yl)-1H-pyrazolo[3,4-c]pyridine] | 0.07 nM
33 | NC[C@H]1CCN(c2cncc(-c3n[nH]c4cnc(-c5cccnc5)cc34)c2)C1 [Example 168, (R)-(1-(5-(5-(pyridin-3-yl)-1H-pyrazolo[3,4-c]pyridin-3-yl)pyridin-3-yl)pyrrolidin-3-yl)methanamine] | 1.6 nM
34 | CCn1cc(-c2cc3c(-c4ccccn4)n[nH]c3cn2)cn1 [Example 508, 5-(1-ethyl-1H-pyrazol-4-yl)-3-(pyridin-2-yl)-1H-pyrazolo[3,4-c]pyridine] | 10.6 nM
35 | NC(=O)[C@@H]1CCCN1c1ccc(-c2n[nH]c3cnc(-c4cccnc4)cc23)nc1 [Example 344, (S)-1-(6-(5-(pyridin-3-yl)-1H-pyrazolo[3,4-c]pyridin-3-yl)pyridin-3-yl)pyrrolidine-2-carboxamide] | 3.9 nM
36 | Cn1cc(-c2cc3c(-c4cccc(O[C@@H]5CCCNC5)n4)n[nH]c3cn2)cn1 [Example 264, (R)-5-(1-methyl-1H-pyrazol-4-yl)-3-(6-(piperidin-3-yloxy)pyridin-2-yl)-1H-pyrazolo[3,4-c]pyridine] | 0.27 nM
37 | NCCNc1cc(-c2n[nH]c3cnc(-c4cccnc4)cc23)ccn1 [Example 159, N1-(4-(5-(pyridin-3-yl)-1H-pyrazolo[3,4-c]pyridin-3-yl)pyridin-2-yl)ethane-1,2-diamine] | 0.941 nM
38 | Cn1cc(-c2cc3c(-c4cccc(N[C@H]5CC[C@@H](N)CC5)n4)n[nH]c3cn2)cn1 [Example 251, (1s,4s)-N1-(6-(5-(1-methyl-1H-pyrazol-4-yl)-1H-pyrazolo[3,4-c]pyridin-3-yl)pyridin-2-yl)cyclohexane-1,4-diamine] | 0.04 nM
39 | N#Cc1cc(-c2n[nH]c3cnc(-c4cccnc4)cc23)cc(N2CCNCC2)c1 [Example 240, 3-(piperazin-1-yl)-5-(5-(pyridin-3-yl)-1H-pyrazolo[3,4-c]pyridin-3-yl)benzonitrile] | 5.28 nM
